From the NIST ThermoML archive (doi:10.1016/j.jct.2004.06.009)
± gives the expanded uncertainty stated by the source.

Test: molar heat capacity at constant pressure
Conditions: 101.33 kPa, Crystal

CCC12CC3CC(CC(C3)C1)C2 [1-ethyladamantane]
molar heat capacity at constant pressure (8.03 K): 1.395 ± 0.087 J/K/mol | molar heat capacity at constant pressure (8.87 K): 1.961 ± 0.1 J/K/mol | molar heat capacity at constant pressure (9.72 K): 2.621 ± 0.12 J/K/mol | molar heat capacity at constant pressure (10.57 K): 3.39 ± 0.14 J/K/mol | molar heat capacity at constant pressure (11.44 K): 4.278 ± 0.17 J/K/mol | molar heat capacity at constant pressure (12.32 K): 5.225 ± 0.19 J/K/mol | molar heat capacity at constant pressure (13.21 K): 6.255 ± 0.22 J/K/mol | molar heat capacity at constant pressure (14.1 K): 7.376 ± 0.24 J/K/mol | molar heat capacity at constant pressure (14.99 K): 8.556 ± 0.27 J/K/mol | molar heat capacity at constant pressure (15.9 K): 9.727 ± 0.29 J/K/mol | molar heat capacity at constant pressure (16.8 K): 10.96 ± 0.32 J/K/mol | molar heat capacity at constant pressure (17.71 K): 12.22 ± 0.34 J/K/mol | molar heat capacity at constant pressure (18.62 K): 13.48 ± 0.36 J/K/mol | molar heat capacity at constant pressure (19.54 K): 14.72 ± 0.38 J/K/mol | molar heat capacity at constant pressure (20.54 K): 16.13 ± 0.4 J/K/mol | molar heat capacity at constant pressure (21.56 K): 17.52 ± 0.41 J/K/mol | molar heat capacity at constant pressure (22.59 K): 18.89 ± 0.42 J/K/mol | molar heat capacity at constant pressure (23.61 K): 20.32 ± 0.43 J/K/mol | molar heat capacity at constant pressure (24.63 K): 21.67 ± 0.44 J/K/mol | molar heat capacity at constant pressure (26.68 K): 24.2 ± 0.44 J/K/mol | molar heat capacity at constant pressure (27.71 K): 25.4 ± 0.44 J/K/mol | molar heat capacity at constant pressure (28.74 K): 26.62 ± 0.43 J/K/mol | molar heat capacity at constant pressure (29.76 K): 27.84 ± 0.42 J/K/mol | molar heat capacity at constant pressure (30.79 K): 29.12 ± 0.39 J/K/mol | molar heat capacity at constant pressure (32.85 K): 31.29 ± 0.41 J/K/mol | molar heat capacity at constant pressure (33.87 K): 32.44 ± 0.42 J/K/mol | molar heat capacity at constant pressure (34.9 K): 33.5 ± 0.43 J/K/mol | molar heat capacity at constant pressure (35.93 K): 34.39 ± 0.44 J/K/mol | molar heat capacity at constant pressure (37.98 K): 36.32 ± 0.45 J/K/mol | molar heat capacity at constant pressure (39.01 K): 37.21 ± 0.46 J/K/mol | molar heat capacity at constant pressure (40.03 K): 38.15 ± 0.47 J/K/mol | molar heat capacity at constant pressure (41.06 K): 39 ± 0.47 J/K/mol | molar heat capacity at constant pressure (42.08 K): 39.94 ± 0.48 J/K/mol | molar heat capacity at constant pressure (43.1 K): 40.64 ± 0.48 J/K/mol | molar heat capacity at constant pressure (44.12 K): 41.41 ± 0.49 J/K/mol | molar heat capacity at constant pressure (45.14 K): 42.16 ± 0.5 J/K/mol | molar heat capacity at constant pressure (46.16 K): 42.91 ± 0.5 J/K/mol | molar heat capacity at constant pressure (47.18 K): 43.59 ± 0.51 J/K/mol | molar heat capacity at constant pressure (48.2 K): 44.12 ± 0.51 J/K/mol | molar heat capacity at constant pressure (49.22 K): 44.8 ± 0.52 J/K/mol | molar heat capacity at constant pressure (50.23 K): 45.53 ± 0.52 J/K/mol | molar heat capacity at constant pressure (51.25 K): 46 ± 0.53 J/K/mol | molar heat capacity at constant pressure (52.26 K): 46.77 ± 0.53 J/K/mol | molar heat capacity at constant pressure (53.27 K): 47.66 ± 0.54 J/K/mol | molar heat capacity at constant pressure (54.29 K): 48.36 ± 0.55 J/K/mol | molar heat capacity at constant pressure (55.3 K): 49.16 ± 0.55 J/K/mol | molar heat capacity at constant pressure (56.32 K): 50.02 ± 0.56 J/K/mol | molar heat capacity at constant pressure (57.33 K): 50.66 ± 0.56 J/K/mol | molar heat capacity at constant pressure (60.8 K): 53.31 ± 0.59 J/K/mol | molar heat capacity at constant pressure (62.77 K): 54.44 ± 0.6 J/K/mol | molar heat capacity at constant pressure (64.71 K): 55.94 ± 0.61 J/K/mol | molar heat capacity at constant pressure (65.75 K): 56.4 ± 0.61 J/K/mol | molar heat capacity at constant pressure (66.79 K): 57.48 ± 0.62 J/K/mol | molar heat capacity at constant pressure (67.84 K): 57.62 ± 0.62 J/K/mol | molar heat capacity at constant pressure (68.88 K): 58.33 ± 0.63 J/K/mol | molar heat capacity at constant pressure (69.92 K): 59.01 ± 0.63 J/K/mol | molar heat capacity at constant pressure (70.96 K): 59.56 ± 0.64 J/K/mol | molar heat capacity at constant pressure (72 K): 60.08 ± 0.64 J/K/mol | molar heat capacity at constant pressure (73.04 K): 60.85 ± 0.65 J/K/mol | molar heat capacity at constant pressure (74.08 K): 61.29 ± 0.65 J/K/mol | molar heat capacity at constant pressure (75.11 K): 62.33 ± 0.66 J/K/mol | molar heat capacity at constant pressure (76.15 K): 62.98 ± 0.66 J/K/mol | molar heat capacity at constant pressure (77.19 K): 63.42 ± 0.67 J/K/mol | molar heat capacity at constant pressure (78.22 K): 64.33 ± 0.68 J/K/mol | molar heat capacity at constant pressure (79.25 K): 64.56 ± 0.68 J/K/mol | molar heat capacity at constant pressure (80.28 K): 65.4 ± 0.68 J/K/mol | molar heat capacity at constant pressure (81.31 K): 66.12 ± 0.69 J/K/mol | molar heat capacity at constant pressure (81.85 K): 65.93 ± 0.69 J/K/mol | molar heat capacity at constant pressure (82.34 K): 66.67 ± 0.69 J/K/mol | molar heat capacity at constant pressure (82.88 K): 66.84 ± 0.69 J/K/mol | molar heat capacity at constant pressure (83.37 K): 67.23 ± 0.7 J/K/mol | molar heat capacity at constant pressure (83.91 K): 67.62 ± 0.7 J/K/mol | molar heat capacity at constant pressure (84.26 K): 67.63 ± 0.7 J/K/mol | molar heat capacity at constant pressure (84.94 K): 68.15 ± 0.7 J/K/mol | molar heat capacity at constant pressure (85.59 K): 68.6 ± 0.71 J/K/mol | molar heat capacity at constant pressure (85.97 K): 68.8 ± 0.71 J/K/mol | molar heat capacity at constant pressure (86.66 K): 69.39 ± 0.71 J/K/mol | molar heat capacity at constant pressure (87 K): 69.66 ± 0.72 J/K/mol | molar heat capacity at constant pressure (87.74 K): 70.12 ± 0.72 J/K/mol | molar heat capacity at constant pressure (88.82 K): 70.92 ± 0.73 J/K/mol | molar heat capacity at constant pressure (89.89 K): 71.56 ± 0.73 J/K/mol | molar heat capacity at constant pressure (90.96 K): 72.22 ± 1.1 J/K/mol | molar heat capacity at constant pressure (92.04 K): 72.9 ± 1.1 J/K/mol | molar heat capacity at constant pressure (93.11 K): 73.4 ± 1.1 J/K/mol | molar heat capacity at constant pressure (94.18 K): 73.82 ± 1.1 J/K/mol | molar heat capacity at constant pressure (95.25 K): 75.04 ± 1.1 J/K/mol | molar heat capacity at constant pressure (96.32 K): 75.51 ± 1.1 J/K/mol | molar heat capacity at constant pressure (97.39 K): 76.24 ± 1.1 J/K/mol | molar heat capacity at constant pressure (98.46 K): 76.81 ± 1.1 J/K/mol | molar heat capacity at constant pressure (99.54 K): 77.83 ± 1.1 J/K/mol | molar heat capacity at constant pressure (100.87 K): 78.38 ± 1.1 J/K/mol | molar heat capacity at constant pressure (102.46 K): 79.35 ± 1.1 J/K/mol | molar heat capacity at constant pressure (104.05 K): 80.35 ± 1.1 J/K/mol | molar heat capacity at constant pressure (105.64 K): 81.43 ± 1.1 J/K/mol | molar heat capacity at constant pressure (107.23 K): 82.56 ± 1.1 J/K/mol | molar heat capacity at constant pressure (108.82 K): 83.52 ± 1.1 J/K/mol | molar heat capacity at constant pressure (110.4 K): 84.71 ± 1.1 J/K/mol | molar heat capacity at constant pressure (111.99 K): 85.66 ± 1.1 J/K/mol | molar heat capacity at constant pressure (113.57 K): 86.76 ± 1.1 J/K/mol | molar heat capacity at constant pressure (115.16 K): 87.63 ± 1.2 J/K/mol | molar heat capacity at constant pressure (116.73 K): 88.67 ± 1.2 J/K/mol | molar heat capacity at constant pressure (118.31 K): 89.74 ± 1.2 J/K/mol | molar heat capacity at constant pressure (119.89 K): 90.68 ± 1.2 J/K/mol | molar heat capacity at constant pressure (121.47 K): 91.9 ± 1.2 J/K/mol | molar heat capacity at constant pressure (123.04 K): 92.76 ± 1.2 J/K/mol | molar heat capacity at constant pressure (124.62 K): 93.94 ± 1.2 J/K/mol | molar heat capacity at constant pressure (126.2 K): 94.87 ± 1.2 J/K/mol | molar heat capacity at constant pressure (127.77 K): 96.09 ± 1.2 J/K/mol | molar heat capacity at constant pressure (129.34 K): 97.09 ± 1.2 J/K/mol | molar heat capacity at constant pressure (130.92 K): 97.98 ± 1.2 J/K/mol | molar heat capacity at constant pressure (132.49 K): 99.07 ± 1.2 J/K/mol | molar heat capacity at constant pressure (134.06 K): 100.25 ± 1.2 J/K/mol | molar heat capacity at constant pressure (135.63 K): 101.16 ± 1.2 J/K/mol | molar heat capacity at constant pressure (137.2 K): 102.25 ± 1.2 J/K/mol | molar heat capacity at constant pressure (138.77 K): 103.19 ± 1.2 J/K/mol | molar heat capacity at constant pressure (140.34 K): 104.1 ± 1.2 J/K/mol | molar heat capacity at constant pressure (141.9 K): 105.44 ± 1.2 J/K/mol | molar heat capacity at constant pressure (143.46 K): 106.52 ± 1.2 J/K/mol | molar heat capacity at constant pressure (145.03 K): 107.47 ± 1.2 J/K/mol | molar heat capacity at constant pressure (146.59 K): 108.5 ± 1.2 J/K/mol | molar heat capacity at constant pressure (148.16 K): 109.54 ± 1.2 J/K/mol | molar heat capacity at constant pressure (149.72 K): 110.66 ± 1.2 J/K/mol | molar heat capacity at constant pressure (151.28 K): 111.92 ± 1.2 J/K/mol | molar heat capacity at constant pressure (152.83 K): 112.8 ± 1.2 J/K/mol | molar heat capacity at constant pressure (154.39 K): 113.97 ± 1.3 J/K/mol | molar heat capacity at constant pressure (155.94 K): 114.98 ± 1.3 J/K/mol | molar heat capacity at constant pressure (157.5 K): 116.23 ± 1.3 J/K/mol | molar heat capacity at constant pressure (159.05 K): 117.17 ± 1.3 J/K/mol | molar heat capacity at constant pressure (160.6 K): 118.16 ± 1.3 J/K/mol | molar heat capacity at constant pressure (162.16 K): 119.21 ± 1.3 J/K/mol | molar heat capacity at constant pressure (163.71 K): 120.38 ± 1.3 J/K/mol | molar heat capacity at constant pressure (165.26 K): 121.36 ± 1.3 J/K/mol | molar heat capacity at constant pressure (166.82 K): 122.47 ± 1.3 J/K/mol | molar heat capacity at constant pressure (168.37 K): 123.67 ± 1.3 J/K/mol | molar heat capacity at constant pressure (169.92 K): 124.78 ± 1.3 J/K/mol | molar heat capacity at constant pressure (171.47 K): 125.84 ± 1.3 J/K/mol | molar heat capacity at constant pressure (173.02 K): 126.95 ± 1.3 J/K/mol | molar heat capacity at constant pressure (174.57 K): 128.01 ± 1.3 J/K/mol
